Reference: patent US20160047819A1, “METHOD FOR DIAGNOSING VAGINAL INFECTIONS” (priority 2013, published 2016)

System: vaginal proteome (human proteins in vaginal fluid)
Assay: MS/MS proteomic analysis of vaginal fluid pools, BV-affected women before (BV) and after rifaximin/placebo treatment: human proteins
Assay type: in vivo
Description: Proteomic analysis was performed on 9 pools of vaginal isolates, grouped according to the status of the BV infection: • H pool (from 41 healthy women); BV pool (from 39 BV-affected women); • A-R pool (from 2 women who were in remission after rifaximin treatment-group A); • A-N pool (from 8 women who were not in remission after rifaximin treatment-group A); • B-R pool (from 5 women who were in remission after rifaximin treatment-group B); • B-N pool (from 5 women who were not in remission after rifaximin treatment-group B); • C-R pool (from 4 women who were in remission after rifaximin treatment-group C); • C-N (from 5 women who were not in remission after rifaximin treatment-group C); • D-N (from 10 women who were not in remission after placebo treatment-group D). Scheme of the vaginal fluids collected for testing the diagnostic method is represented in FIG. 1.
In these figures are reported the peptides in the fractionated pools of healthy women, women affected by BV and peptides of women treated with rifaximin. The treatment with rifaximin was at dosage of 100 mg/day for 5 days; (remission, A-R; no remission, A-N), 25 mg/5 days (remission, B-R; no remission, B-N), 100 mg/2 days (remission, C-R; no remission, C-N), and placebo for 5 days (D-N). Two types of comparisons were carried out: (i) between fractionated pools of proteins from vaginal fluid of healthy women (HF) versus fractionated pool of proteins from vaginal fluid of women affected by bacterial vaginosis (BVF); (ii) between whole pools of proteins from vaginal fluid of women affected by BV treated by administering different doses of rifaximin or placebo before (BV) and after (A-R, A-N, B-R, B-N, C-R, C-N, D-N) treatment. Fractioned pools of proteins are obtained, e.g., by separating the proteins by separation on membrane filtration with different membrane porosity, prior to MS/MS analysis.
Nine volumes of acetone: HCl (10:1) were added to the supernatant of the vaginal rinsing and proteins were precipitated by centrifuging at 12000 g for 10 min. The protein pellet was dissolved in 1 mL of 70% ethanol and the sample was spun at 12000 g for 10 min. One mL of acetone was added and the proteins were further precipitated by centrifugation at 12000 g for 5 min. After removing supernatant, pellet was dried by SpeedVac concentrator (Thermo Savant ISS110, Thermo Fisher Scientific, Waltham, Mass.) and then stored at −20° C.
Protein extract was quantified using the 2-D Quant Kit (GE Healthcare, Uppsala, Sweden) according to the manufacturer's instructions.
Patients who were diagnosed for BV at the study visit V1 were included in a multicentre, double-blind, randomised, placebo-controlled study (EudraCT: 2009-011826-32), that was performed to compare the efficacy of different doses of rifaximin vaginal tablets versus placebo for the treatment of BV. The patients underwent a randomisation visit and were distributed into 4 treatment groups: group A received 100 mg rifaximin vaginal tablet once daily for 5 days (n=10), group B received 25 mg rifaximin vaginal tablet once daily for 5 days (n=10), group C received 100 mg rifaximin vaginal tablet once daily for the first 2 days and placebo vaginal tablet for the remaining 3 days (n=9), group D received placebo vaginal tablet once daily for 5 days (n=10). Study medication was administered intra-vaginally at bedtime. After 7 to 10 days from the end of the therapy a follow-up visit (V3) was performed. Remission was evaluated at V3 according to Amsel's criteria (<3) and Gram stain Nugent score (≦3) (Table 1).
Standardized vaginal rinsings with 2 mL of saline were collected for analysis at V1 and V3 by flushing and re-aspirating the fluid through a 22 Gauge needle in the left, central and right upper vaginal vaults. The vaginal rinsings were subsequently stored at −80° C. until use.
MS/MS analysis was carried out for H and BV pools and for the whole BV, A-R, A-N, B-R, B-N, C-R, C-N and D-N pools containing 50 μg of protein each. […]

## CO[C@H]1/C=C/O[C@@]2(C)Oc3c(C)c(O)c4c(O)c(c5c(nc6cc(C)ccn65)c4c3C2=O)NC(=O)/C(C)=C\C=C\[C@H](C)[C@H](O)[C@@H](C)[C@@H](O)[C@@H](C)[C@H](OC(C)=O)[C@@H]1C [rifaximin]
C-R pool (100 mg × 2 days, in remission) vs BV pool before treatment, vaginal fluid
  Ratio: BV/R, Vitamin D-binding protein: 0.0
Pool A-N after treatment
  Ratio X/H Sciellin (O95171): 0.0
  Ratio X/H Semenogelin-2 (Q02383): 525.8
  Ratio X/H Serine protease 27 (Q9BQR3): 0.0
  Ratio X/H Serine/threonine-protein kinase ULK1 (O75385): −5.1
  Ratio X/H Serotransferrin (P02787): 1.6
  Ratio X/H Serpin B3 (P29508): 0.0
  Ratio X/H Serpin B4 (P48594): 0.0
  Ratio X/H Serpin B5 (P36952): −3.3
  Ratio X/H Serpin B6 (P35237): −2.1
  Ratio X/H Serpin B9 (P50453): −2.6
  Ratio X/H Serpin B12 (Q96P63): −1.5
  Ratio X/H Serpin B13 (Q9UIV8): 0.0
  Ratio X/H Serum albumin (P02768): −1.5
  Ratio X/H Serum paraoxonase/arylesterase 1 (P27169): 1.5
  Ratio X/H Small proline-rich protein 3 (Q9UBC9): 3.4
  Ratio X/H Stanniocalcin-1 (P52823): 1.9
  Ratio X/H Sulfhydryl oxidase 1 (O00391): −1.6
  Ratio X/H Superoxide dismutase [Cu—Zn] (P00441): 0.0
  Ratio X/H Suprabasin (Q6UWP8): 13.5
  Ratio X/H Syntenin-1 (O00560): 4.4
  Ratio X/H Talin-1 (Q9Y490): 0.0
  Ratio X/H Tctex1 domain-containing protein 2 (Q8WW35): −1.6
  Ratio X/H Teneurin-3 (Q9P273): 9.7
  Ratio X/H Thioredoxin (P10599): 0.0
  Ratio X/H Transaldolase (P37837): −1.8
  Ratio X/H Transmembrane protease serine 11D (O60235): −1.8
  Ratio X/H Transthyretin (P02766): 0.0
  Ratio X/H Tumor protein D54 (O43399): 0.0
  Ratio X/H UTP--glucose-1-phosphate uridylyltransferase (Q16851): 0.0
  Ratio X/H UV excision repair protein RAD23 homolog B (P54727): −2.9
  Ratio X/H Uronyl 2-sulfotransferase (Q9Y2C2): −786.0
  Ratio X/H Versican core protein (P13611): 0.0
  Ratio X/H Vinculin (P18206): 0.0
  Ratio X/H Vitamin D-binding protein (P02774): 0.0
  Ratio X/H Werner syndrome ATP-dependent helicase (Q14191): 302.6
  Ratio X/H Zinc finger protein 185 (O15231): 2.2
  Ratio X/H Zinc finger protein 335 (Q9H4Z2): 0.0
  Ratio X/H Zinc-alpha-2-glycoprotein (P25311): 0.0
  Ratio X/H Zyxin (Q15942): −1.7
Pool A-R after treatment
  Ratio X/H Sciellin (O95171): 0.0
  Ratio X/H Semenogelin-2 (Q02383): 1.9
  Ratio X/H Serine protease 27 (Q9BQR3): −1.7
  Ratio X/H Serine/threonine-protein kinase ULK1 (O75385): −2.2
  Ratio X/H Serotransferrin (P02787): −1.5
  Ratio X/H Serpin B3 (P29508): 3.2
  Ratio X/H Serpin B4 (P48594): 0.0
  Ratio X/H Serpin B5 (P36952): −7.9
  Ratio X/H Serpin B6 (P35237): 0.0
  Ratio X/H Serpin B9 (P50453): −4.1
  Ratio X/H Serpin B12 (Q96P63): −2.7
  Ratio X/H Serpin B13 (Q9UIV8): 0.0
  Ratio X/H Serum albumin (P02768): −2.3
  Ratio X/H Serum paraoxonase/arylesterase 1 (P27169): 0.0
  Ratio X/H Small proline-rich protein 3 (Q9UBC9): 6.6
  Ratio X/H Stanniocalcin-1 (P52823): 3.4
  Ratio X/H Sulfhydryl oxidase 1 (O00391): 0.0
  Ratio X/H Superoxide dismutase [Cu—Zn] (P00441): −1.8
  Ratio X/H Suprabasin (Q6UWP8): 17.9
  Ratio X/H Syntenin-1 (O00560): 1.9
  Ratio X/H Talin-1 (Q9Y490): −1.6
  Ratio X/H Tctex1 domain-containing protein 2 (Q8WW35): 1.8
  Ratio X/H Teneurin-3 (Q9P273): 33.3
  Ratio X/H Thioredoxin (P10599): 2.5
  Ratio X/H Transaldolase (P37837): −1.9
  Ratio X/H Transmembrane protease serine 11D (O60235): 0.0
  Ratio X/H Transthyretin (P02766): 0.0
  Ratio X/H Tumor protein D54 (O43399): 2.2
  Ratio X/H UTP--glucose-1-phosphate uridylyltransferase (Q16851): 0.0
  Ratio X/H UV excision repair protein RAD23 homolog B (P54727): −2.8
  Ratio X/H Uronyl 2-sulfotransferase (Q9Y2C2): 2.0
  Ratio X/H Versican core protein (P13611): 0.0
  Ratio X/H Vinculin (P18206): 0.0
  Ratio X/H Vitamin D-binding protein (P02774): −1.7
  Ratio X/H Werner syndrome ATP-dependent helicase (Q14191): 331.1
  Ratio X/H Zinc finger protein 185 (O15231): 5.2
  Ratio X/H Zinc finger protein 335 (Q9H4Z2): 0.0
  Ratio X/H Zinc-alpha-2-glycoprotein (P25311): 0.0
